Test results from US6440903B1, “Substituted 2,4-diamino-1,3,5-triazines as herbicides” (Bayer Aktiengesellschaft, priority 1996, dated 2002).

Experiments:
[1] = system: weeds; experiment: Post-emergence test (summary in text); assay type: in vivo; conditions: result in words
Description: (§1) Solvent: 5 parts by weight of acetone
(§2) Emulsifier: 1 part by weight of alkylaryl polyglycol ether
(§3) To produce a suitable preparation of active compound, 1 part by weight of active compound is mixed with the stated amount of solvent, the stated amount of emulsifier is added and the concentrate is diluted with water to the desired concentration.
Test plants which have a height of 5-15 cm are sprayed with the preparation of active compound such that the particular amounts of active compounds desired are applied per unit area. The concentration of the spray liquor is chosen so that the particular amounts of active compound desired are applied in 1000 l of water/ha.
After three weeks, the degree of damage to the plants is scored visually in % damage in comparison to the untreated control.
(§4) 0%=no effect (like untreated control)

[2] = system: Abutilon; experiment: Post-emergence test; assay type: in vivo; conditions: greenhouse, 1000 g of ai./ha, scored after three weeks
Description: (§5) Post-emergence Test Solvent: 5 parts by weight of acetone Emulsifier: 1 part by weight of alkylaryl polyglycol ether To produce a suitable preparation of active compound, 1 part by weight of active compound is mixed with the stated amount of solvent, the stated amount of emulsifier is added and the concentrate is diluted with water to the desired concentration. Test plants which have a height of 5-15 cm are sprayed with the preparation of active compound such that the particular amounts of active compounds desired are applied per unit area. The concentration of the spray liquor is chosen so that the particular amounts of active compound desired are applied in 1000 l of water/ha. After three weeks, the degree of damage to the plants is scored visually in % damage in comparison to the untreated control. The Figures Denote: 0%=no effect (like untreated control) 100%=total destruction

[3] = system: Alopecurus; experiment: Post-emergence test; assay type: in vivo; conditions: greenhouse, 1000 g of ai./ha, scored after three weeks
Description: as §5

[4] = system: Amaranthus; experiment: Post-emergence test; assay type: in vivo; conditions: greenhouse, scored after three weeks
Description: as §5

[5] = system: Avena fatua; experiment: Post-emergence test; assay type: in vivo; conditions: greenhouse, 1000 g of ai./ha, scored after three weeks
Description: as §5

[6] = system: Setaria; experiment: Post-emergence test; assay type: in vivo; conditions: greenhouse, scored after three weeks
Description: as §5

[7] = system: Sinapis; experiment: Post-emergence test; assay type: in vivo; conditions: greenhouse, 1000 g of ai./ha, scored after three weeks
Description: as §5

[8] = system: weeds; experiment: Pre-emergence test (summary in text); assay type: in vivo; conditions: result in words
Description: as §1, §2, §3
Seeds of the test plants are sown in normal soil. After about 24 hours, the soil is watered with the preparation of active compound. The amount of water per unit area is advantageously kept constant. The concentration of active compound in the preparation is immaterial, only the application rate of active compound per unit area matters.
After three weeks, the degree of damage to the plants is scored visually in % damage in comparison to the development of the untreated control.
as §4

[9] = system: Galium; experiment: Post-emergence test; assay type: in vivo; conditions: greenhouse, 500 g of ai./ha, scored after three weeks
Description: as §5

[10] = system: Maize; experiment: Post-emergence test; assay type: in vivo; conditions: greenhouse, 1000 g of ai./ha, scored after three weeks
Description: as §5

[11] = system: Amaranthus; experiment: Pre-emergence test; assay type: in vivo; conditions: greenhouse, 1000 g of ai./ha, scored after three weeks
Description: (§6) Pre-emergence Test Solvent: 5 parts by weight of acetone Emulsifier: 1 part by weight of alkylaryl polyglycol ether To produce a suitable preparation of active compound, 1 part by weight of active compound is mixed with the stated amount of solvent, the stated amount of emulsifier is added and the concentrate is diluted with water to the desired concentration. Seeds of the test plants are sown in normal soil. After about 24 hours, the soil is watered with the preparation of active compound. The amount of water per unit area is advantageously kept constant. The concentration of active compound in the preparation is immaterial, only the application rate of active compound per unit area matters. After three weeks, the degree of damage to the plants is scored visually in % damage in comparison to the development of the untreated control. The figures denote: 0%=no effect (like untreated control) 100%=total destruction

[12] = system: Digitaria; experiment: Pre-emergence test; assay type: in vivo; conditions: greenhouse, 1000 g of ai./ha, scored after three weeks
Description: as §6

[13] = system: Echinochloa; experiment: Pre-emergence test; assay type: in vivo; conditions: greenhouse, 1000 g of ai./ha, scored after three weeks
Description: as §6

[14] = system: Polygonum; experiment: Pre-emergence test; assay type: in vivo; conditions: greenhouse, 1000 g of ai./ha, scored after three weeks
Description: as §6

[15] = system: Setaria; experiment: Pre-emergence test; assay type: in vivo; conditions: greenhouse, 1000 g of ai./ha, scored after three weeks
Description: as §6

[16] = system: Solanum; experiment: Pre-emergence test; assay type: in vivo; conditions: greenhouse, 1000 g of ai./ha, scored after three weeks
Description: as §6

[17] = system: Veronica; experiment: Pre-emergence test; assay type: in vivo; conditions: greenhouse, 1000 g of ai./ha, scored after three weeks
Description: as §6

[18] = system: Wheat; experiment: Pre-emergence test; assay type: in vivo; conditions: greenhouse, 1000 g of ai./ha, scored after three weeks
Description: as §6

[19] = Amaranthus, 504 h, 1000 g of ai./ha, read-out: % damage, Amaranthus
[20] = Setaria, 504 h, 1000 g of ai./ha, read-out: % damage, Setaria

CSc1ccc(C(C)Nc2nc(N)nc(C(Cl)Cl)n2)cc1 (stereo not drawn) [Example 108]
activity against weeds [1]: strong activity
melting point: 125 °C

CC(Nc1nc(N)nc(C(C)(C)F)n1)c1ccc(Cl)cc1 (stereo not drawn) [drawing 110]
% damage, Abutilon [2]: 100%
% damage, Alopecurus [3]: 90%
pest or weed control at 1000 g/ha [4, 19]: 100%
% damage, Avena fatua [5]: 95%
pest or weed control at 1000 g/ha [6, 20]: 100%
% damage, Sinapis [7]: 100%

COSc1ccc(C(C)Nc2nc(N)nc(C(C)Cl)n2)cc1 (stereo not drawn)
pest or weed control at 1000 g/ha [4, 19]: 100%
pest or weed control at 1000 g/ha [6, 20]: 100%
% damage, Sinapis [7]: 100%

COc1ccc(C(C)Nc2nc(NC(C)=O)nc(C(F)(F)F)n2)cc1 (stereo not drawn) [Example 84]
activity against weeds [1]: strong activity
melting point: 108 °C

CC(Nc1nc(N)nc(C(C)(Cl)Cl)n1)c1ccc(Cl)cc1 (stereo not drawn) [Example 159]
activity against weeds [8]: strong activity

COSc1ccc(C(C)Nc2nc(NC(C)=O)nc(C(Cl)Cl)n2)cc1 (stereo not drawn)
pest or weed control at 500 g/ha ([4]; Amaranthus, 504 h, 500 g of ai./ha, read-out: % damage, Amaranthus): 100%
% damage, Galium [9]: 100%
pest or weed control at 500 g/ha ([6]; Setaria, 504 h, 500 g of ai./ha, read-out: % damage, Setaria): 90%

COCc1nc(NC(C)=O)nc(NC(C)c2ccc(SC)cc2)n1 (stereo not drawn) [drawing 143]
pest or weed control at 1000 g/ha [4, 19]: 100%
% damage, Maize [10]: 0%
pest or weed control at 1000 g/ha [6, 20]: 100%
% damage, Sinapis [7]: 100%

CC(Nc1nc(N)nc(Cl)n1)c1ccc(Cl)cc1 (stereo not drawn) [drawing 108]
% damage, Abutilon [2]: 100%
% damage, Alopecurus [3]: 70%
% damage, Amaranthus ([4]; 1000 g of ai./ha): 100%
% damage, Avena fatua [5]: 80%
% damage, Setaria ([6]; 1000 g of ai./ha): 100%
% damage, Sinapis [7]: 100%

CC(Nc1nc(N)nc(C(C)(C)F)n1)c1ccc(Cl)cc1 (stereo not drawn) [Example 22]
activity against weeds [8]: strong activity

CC(F)c1nc(N)nc(NC(C)c2ccc(Cl)cc2)n1 (stereo not drawn) [Example 14]
activity against weeds [8]: strong activity

CC(F)c1nc(N)nc(NC(C)c2ccc(Cl)cc2)n1 (stereo not drawn) [Example 13]
activity against weeds [8]: strong activity
activity against weeds [1]: strong activity

CC(=O)Nc1nc(NC(C)c2ccc(Cl)cc2)nc(C(C)(Cl)Cl)n1 (stereo not drawn) [Example 160]
activity against weeds [8]: strong activity
melting point: 118 °C

CC(=O)Nc1nc(NC(C)c2ccc(Cl)cc2)nc(C(C)(Cl)Cl)n1 (stereo not drawn) [drawing 103]
% damage, Amaranthus [11]: 100%
% damage, Digitaria [12]: 100%
% damage, Echinochloa [13]: 100%
% damage, Polygonum [14]: 100%
% damage, Setaria [15]: 95%
% damage, Solanum [16]: 100%
% damage, Veronica [17]: 100%
% damage, Wheat [18]: 0%

CC(Nc1nc(N)nc(C(F)C(F)(F)F)n1)c1ccc(Cl)cc1 (stereo not drawn) [drawing 101]
% damage, Amaranthus [11]: 100%
% damage, Digitaria [12]: 100%
% damage, Echinochloa [13]: 100%
% damage, Polygonum [14]: 100%
% damage, Setaria [15]: 100%
% damage, Solanum [16]: 100%
% damage, Veronica [17]: 100%
% damage, Wheat [18]: 0%

COCc1nc(NC(C)=O)nc(NC(C)c2ccc(SOC)cc2)n1 (stereo not drawn)
pest or weed control at 1000 g/ha [4, 19]: 100%
pest or weed control at 1000 g/ha [6, 20]: 100%
% damage, Sinapis [7]: 100%

CC(Cl)c1nc(N)nc(NC(C)c2ccc(Cl)cc2)n1 (stereo not drawn) [Example 157]
activity against weeds [8]: strong activity

CC(=O)Nc1nc(NC(C)c2ccc(Cl)cc2)nc(C(F)C(F)(F)F)n1 (stereo not drawn) [drawing 102]
% damage, Amaranthus [11]: 100%
% damage, Digitaria [12]: 100%
% damage, Echinochloa [13]: 100%
% damage, Polygonum [14]: 100%
% damage, Setaria [15]: 100%
% damage, Solanum [16]: 100%
% damage, Veronica [17]: 100%
% damage, Wheat [18]: 0%

CC(=O)Nc1nc(NC(C)c2ccc(Cl)cc2)nc(C(Cl)Cl)n1 (stereo not drawn) [Example 175]
activity against weeds [1]: strong activity
melting point: 131 °C
